# Source: US9394282B2, “Pyrazole carboxamides as Janus kinase inhibitors” (Merck Sharp & Dohme Corp., priority 2011, dated 2016)
# Columns and labels:
# JAK1 = JAK1 (Homo sapiens (Human), UniProt P23458); assay: Jak biochemical HTRF assay, JAK1; details: recombinant purified GST-tagged catalytic domain; HTRF format; [ATP] 31.8 μM
# Description: (§1) Jak Biochemical HTRF Assay Protocol
# (§2) Subsequent reagent additions employed an Agilent Bravo.
# JAK2 = JAK2 (Homo sapiens (Human), UniProt O60674); assay: Jak biochemical HTRF assay, JAK2; details: recombinant purified GST-tagged catalytic domain; HTRF format; [ATP] 8.5 μM
# Sequence of JAK2 (O60674 849-1124): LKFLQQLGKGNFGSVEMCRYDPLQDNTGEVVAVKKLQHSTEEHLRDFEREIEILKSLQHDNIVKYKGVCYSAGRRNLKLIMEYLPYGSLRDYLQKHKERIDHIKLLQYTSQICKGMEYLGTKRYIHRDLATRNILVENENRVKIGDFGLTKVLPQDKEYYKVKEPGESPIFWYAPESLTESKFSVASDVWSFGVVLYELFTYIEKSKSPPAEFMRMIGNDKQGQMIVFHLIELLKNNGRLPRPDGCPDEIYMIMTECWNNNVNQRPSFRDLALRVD
# Description: as §1, §2
# Sequence of JAK1 (P23458 875-1153): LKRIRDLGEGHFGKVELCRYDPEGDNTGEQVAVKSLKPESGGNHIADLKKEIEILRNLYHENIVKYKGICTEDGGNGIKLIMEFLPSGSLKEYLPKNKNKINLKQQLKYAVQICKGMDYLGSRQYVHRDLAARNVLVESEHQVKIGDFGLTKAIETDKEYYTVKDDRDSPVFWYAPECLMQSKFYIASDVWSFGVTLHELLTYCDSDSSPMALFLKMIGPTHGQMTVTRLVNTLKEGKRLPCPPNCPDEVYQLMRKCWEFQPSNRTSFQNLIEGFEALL
Compound,IC50 (JAK1),IC50 (JAK2)
"N#CCC1(COC(=O)N2CC[C@@H](C#N)C(n3cc(C(N)=O)c(Nc4ccc(F)cc4)n3)C2)CC1 (mixture of isomers) [Example 5-88, [1-(cyanomethyl)cyclopropyl]methyl (3S,4R and 3R,4S)-3-{4-carbamoyl-3-[(4-fluorophenyl)amino]-1H-pyrazol-1-yl}-4-cyanopiperidine-1-carboxylate]",0.7 nM,15 nM
"N#C[C@@H]1CCN(C(=O)OC2COC2)CC1n1cc(C(N)=O)c(Nc2ccc(F)cc2)n1 (mixture of isomers) [Example 5-89, oxetan-3-yl (3S,4R and 3R,4S)-3-{4-carbamoyl-3-[(4-fluorophenyl)amino]-1H-pyrazol-1-yl}-4-cyanopiperidine-1-carboxylate]",3 nM,43 nM
"N#C[C@@H]1CCN(Cc2cccnn2)CC1n1cc(C(N)=O)c(Nc2ccc(F)cc2)n1 (mixture of isomers) [Example 6-1, 1-[(3S,4R and 3R,4S)-4-Cyano-1-(pyridazin-3-ylmethyl)piperidin-3-yl]-3-[(4-fluorophenyl)amino]-1H-pyrazole-4-carboxamide]",6 nM,77 nM
"N#C[C@@H]1CCN(Cc2cnccn2)C[C@H]1n1cc(C(N)=O)c(Nc2ccc(F)cc2)n1 (racemic) [Example 6-2, 1-[(3S,4R and 3R,4S)-4-cyano-1-(pyrazin-2-ylmethyl)piperidin-3-yl]-3-[(4-fluorophenyl)amino]-1H-pyrazole-4-carboxamide]",2 nM,26 nM
"N#C[C@@H]1CCN(Cc2ccon2)C[C@H]1n1cc(C(N)=O)c(Nc2ccc(F)cc2)n1 (racemic) [Example 6-3, 1-[(3S,4R and 3R,4S)-4-cyano-1-(isoxazol-3-ylmethyl)piperidin-3-yl]-3-[(4-fluorophenyl)amino]-1H-pyrazole-4-carboxamide]",2 nM,13 nM
"N#C[C@@H]1CCN(Cc2cocn2)C[C@H]1n1cc(C(N)=O)c(Nc2ccc(F)cc2)n1 (racemic) [Example 6-4, 1-[(3S,4R and 3R,4S)-4-cyano-1-(1,3-oxazol-4-ylmethyl)piperidin-3-yl]-3-[(4-fluorophenyl)amino]-1H-pyrazole-4-carboxamide]",2 nM,18 nM
"Cn1ccc(CN2CC[C@@H](C#N)[C@H](n3cc(C(N)=O)c(Nc4ccc(F)cc4)n3)C2)n1 (racemic) [Example 6-5, 1-{(3S,4R and 3R,4S)-4-cyano-1-[(1-methyl-1H-pyrazol-3-yl)methyl]piperidin-3-yl}-3-[(4-fluorophenyl)amino]-1H-pyrazole-4-carboxamide]",2 nM,14 nM
"N#C[C@@H]1CCN(Cc2cscn2)C[C@H]1n1cc(C(N)=O)c(Nc2ccc(F)cc2)n1 (racemic) [Example 6-6, 1-[(3S,4R and 3R,4S)-4-cyano-1-(1,3-thiazol-4-ylmethyl)piperidin-3-yl]-3-[(4-fluorophenyl)amino]-1H-pyrazole-4-carboxamide]",2 nM,19 nM
"N#C[C@@H]1CCN(Cc2ncco2)C[C@H]1n1cc(C(N)=O)c(Nc2ccc(F)cc2)n1 (racemic) [Example 6-8, 1-[(3S,4R and 3R,4S)-4-cyano-1-(1,3-oxazol-2-ylmethyl)piperidin-3-yl]-3-[(4-fluorophenyl)amino]-1H-pyrazole-4-carboxamide]",2 nM,22 nM
"N#C[C@@H]1CCN(CCC2CCOCC2)C[C@H]1n1cc(C(N)=O)c(Nc2ccc(F)cc2)n1 (racemic) [Example 6-10, 1-{(3S,4R and 3R,4S)-4-cyano-1-[2-(tetrahydro-2H-pyran-4-yl)ethyl]piperidin-3-yl}-3-[(4-fluorophenyl)amino]-1H-pyrazole-4-carboxamide]",6 nM,74 nM
"CC(C)(O)C1CC(CN2CC[C@@H](C#N)[C@H](n3cc(C(N)=O)c(Nc4ccc(F)cc4)n3)C2)C1 (mixture of isomers) [Example 6-11, 1-[(3S,4R and 3R,4S)-4-cyano-1-{[3-(1-hydroxy-1-methylethyl)cyclobutyl]methyl}piperidin-3-yl]-3-[(4-fluorophenyl)amino]-1H-pyrazole-4-carboxamide]",25 nM,533 nM
"Cn1nccc1CN1CC[C@@H](C#N)[C@H](n2cc(C(N)=O)c(Nc3ccc(F)cc3)n2)C1 (racemic) [Example 6-13, 1-{(3S,4R and 3R,4S)-4-cyano-1-[(1-methyl-1H-pyrazol-5-yl)methyl]piperidin-3-yl}-3-[(4-fluorophenyl)amino]-1H-pyrazole-4-carboxamide]",2 nM,20 nM
"Cc1cc(CN2CC[C@@H](C#N)[C@H](n3cc(C(N)=O)c(Nc4ccc(F)cc4)n3)C2)no1 (racemic) [Example 6-14, 1-{(3S,4R and 3R,4S)-4-cyano-1-[(5-methylisoxazol-3-yl)methyl]piperidin-3-yl}-3-[(4-fluorophenyl)amino]-1H-pyrazole-4-carboxamide]",4 nM,42 nM
"Cc1c(CN2CC[C@@H](C#N)[C@H](n3cc(C(N)=O)c(Nc4ccc(F)cc4)n3)C2)cnn1C (racemic) [Example 6-15, 1-{(3S,4R and 3R,4S)-4-cyano-1-[(1,5-dimethyl-1H-pyrazol-4-yl)methyl]piperidin-3-yl}-3-[(4-fluorophenyl)amino]-1H-pyrazole-4-carboxamide]",1 nM,20 nM
"N#C[C@@H]1CCN(Cc2ccc(F)cn2)C[C@H]1n1cc(C(N)=O)c(Nc2ccc(F)cc2)n1 (racemic) [Example 6-16, 1-{(3S,4R and 3R,4S)-4-cyano-1-[(5-fluoropyridin-2-yl)methyl]piperidin-3-yl}-3-[(4-fluorophenyl)amino]-1H-pyrazole-4-carboxamide]",0.7 nM,14 nM
"CC1=NOC(CN2CC[C@@H](C#N)[C@H](n3cc(C(N)=O)c(Nc4ccc(F)cc4)n3)C2)C1 (mixture of isomers) [Example 6-20, 1-{(3S,4R and 3R,4S)-4-cyano-1-[(3-methyl-4,5-dihydroisoxazol-5-yI)methyl]piperidin-3-yl}-3-[(4-fluorophenyl)amino]-1H-pyrazole-4-carboxamide]",6 nM,98 nM
"N#C[C@@H]1CCN(CC2CCOC2)C[C@H]1n1cc(C(N)=O)c(Nc2ccc(F)cc2)n1 (mixture of isomers) [Example 6-21, 1-[(3S,4R and 3R,4S)-4-cyano-1-(tetrahydrofuran-3-ylmethyl)piperidin-3-yl]-3-[(4-fluorophenyl)amino]-1H-pyrdzole-4-carboxamide]",6 nM,63 nM
"N#C[C@@H]1CN(Cc2cccnn2)CC[C@H]1n1cc(C(N)=O)c(Nc2ccc(F)cc2)n1 (racemic) [Example 6-22, 1-[(3R,4R and 3S,4S)-3-cyano-1-(pyridazin-3-ylmethyl)piperidin-4-yl]-3-[(4-fluorophenyl)amino]-1H-pyrazole-4-carboxamide]",19 nM,220 nM
"N#C[C@@H]1CN(Cc2ccon2)CC[C@H]1n1cc(C(N)=O)c(Nc2ccc(F)cc2)n1 (racemic) [Example 6-24, 1-[(3R,4R and 3S,4S)-3-cyano-1-(isoxazol-3-ylmethyl)piperidin-4-yl]-3-[(4-fluorophenyl)amino]-1H-pyrazole-4-carboxamide]",3 nM,34 nM
"Cc1cc(CN2CC[C@@H](n3cc(C(N)=O)c(Nc4ccc(F)cc4)n3)[C@H](C#N)C2)no1 (racemic) [Example 6-33, 1-{(3R,4R and 3S,4S)-3-cyano-1-[(5-methylisoxazol-3-yl)methyl]piperidin-4-yl}-3-[(4-fluorophenyl)amino]-1H-pyrazole-4-carboxamide]",7 nM,92 nM
"Cc1c(CN2CC[C@@H](n3cc(C(N)=O)c(Nc4ccc(F)cc4)n3)[C@H](C#N)C2)cnn1C (racemic) [Example 6-34, 1-{(3R,4R and 3S,4S)-3-cyano-1-[(1,5-dimethyl-1H-pyrazol-4-yl)methyl]piperidin-4-yl}-3-[(4-fluorophenyl)amino]-1H-pyrazole-4-carboxamide]",10 nM,111 nM
"N#C[C@@H]1CN(Cc2cccnc2F)CC[C@H]1n1cc(C(N)=O)c(Nc2ccc(F)cc2)n1 (racemic) [Example 6-35, 1-{(3R,4R and 3S,4S)-3-cyano-1-[(2-fluoropyridin-3-yl)methyl]piperidin-4-yl}-3-[(4-fluorophenyl)amino]-1H-pyrazole-4-carboxamide]",5 nM,79 nM
"Cc1ncc(CN2CC[C@@H](n3cc(C(N)=O)c(Nc4ccc(F)cc4)n3)[C@H](C#N)C2)s1 (racemic) [Example 6-37, 1-{(3R,4R and 3S,4S)-3-cyano-1-[(2-methyl-1,3-thiazol-5-yl)methyl]piperidin-4-yl}-3-[(4-fluorophenyl)amino]-1H-pyrazole-4-carboxamide]",5 nM,104 nM
"CCn1ccnc1CN1CC[C@@H](n2cc(C(N)=O)c(Nc3ccc(F)cc3)n2)[C@H](C#N)C1 (racemic) [Example 6-38, 1-{(3R,4R and 3S,4S)-3-cyano-1-[(1-ethyl-1H-imidazol-2-yl)methyl]piperidin-4-yl}-3-[(4-fluorophenyl)amino]-1H-pyrdzole-4-carboxamide]",7 nM,82 nM
"N#C[C@H]1CCOC[C@@H]1n1cc(C(N)=O)c(Nc2ccc(OC(F)(F)F)cc2)n1 (single isomer, unassigned) [Example 9-20, 1-[(3R,4S or 3S,4R)-4-cyanotetrahydro-2H-pyran-3-yl]-3-{[4-(trifluoromethoxy)phenyl]amino}-1H-pyrazole-4-carboxamide]",7 nM,52 nM
"CC1(c2ccc(Nc3nn([C@H]4COCC[C@@H]4C#N)cc3C(N)=O)cc2)COC1 (single isomer, unassigned) [Example 9-24, 1-[(3R,4S or 3S,4R)-4-cyanotetrahydro-2H-pyran-3-yl]-3-{[4-(3-methyloxetan-3-yl)phenyl]amino}-1H-pyrazole-4-carboxamide]",0.1 nM,0.6 nM
